Here are results for nine molecules from article PMC12491680 (Acta Pharmaceutica Sinica. B, 2025).

The test system of one series is CA1 pyramidal neurons. The series is described as follows: Whole-cell recording in hippocampal CA1 pyramidal neurons. Format: cell-based, C57BL/6J mice.
A short description of series [1]: Detection of toxic alkaloids in mouse plasma after oral G. elegans extract. In kind it is in vivo, Kunming mice. Conditions: mice, oral G. elegans 95% ethanolic extract 200 mg/kg, blood 5 min after gavage.
Series [2] can be described thus: Quantitative analysis of gelsenicine in medulla. In kind it is in vivo, C57BL/6J mice. To be noted: 1 mg/kg intraperitoneal.
The subject of another series is mice. The series is described as follows: Respiratory function by whole-body plethysmography. In kind it is in vivo, C57BL/6J mice. To be noted: 0.22 mg/kg intraperitoneal.
For series [3], the system named is gelsenicine (1)-poisoned mice. The experiment in a line: Antidote screening: survival of gelsenicine-poisoned mice. In kind it is in vivo, Kunming mice. To be noted: gelsenicine 0.22 mg/kg i.p.
Series [4] is classed as in vivo, human. To be noted: victim serum, UPLC-Q Exactive MS/MS.
For a further series, the system named is VRG neurons. The experiment in a line: Whole-cell recording of spontaneous action potentials in VRG neurons. Format: cell-based, C57BL/6J mice.
Series [5] in a line: Acute toxicity of pure Gelsemium alkaloids in mice. To be noted: both, Kunming, mouse, in vivo, ip, 30 mg/kg.
The conditions of series [6]: cited from earlier work.

As usually defined, the LD50 is the dose at which mortality reaches 50%. A lower LD50 goes with a more toxic substance. Regarding `CCC1=N[C@H]2C[C@@]3(C(=O)N(OC)c4ccccc43)[C@H]3C[C@@H]1[C@@H]2CO3` [Compound 1, gelsenicine], the “Concentration at which action potentials were suppressed” value in the series with CA1 pyramidal neurons (CA1 pyramidal neurons) was no less than 5 µmol/L. Also, the “Effect on action potential firing” value is on record as “failed to show an inhibitory effect” with CA1 pyramidal neurons (CA1 pyramidal neurons, 1 and 2 μmol/L); “did not have an inhibitory effect” in the series on VRG neurons (VRG neurons, 0.3 and 0.6 μmol/L). In addition, in the series with CA1 pyramidal neurons (hippocampus CA1 region, 5 μmol/L), the “Effect on miniature inhibitory synaptic currents (mIPSCs)” value is given as “increased the amplitude”. For the same molecule, the Detection in plasma entry in series [1] is “detected in the plasma”. For the same molecule, the Distribution to medulla entry in series [2] (C57BL/6 mice, 5 and 10 min) is “quickly distributed to medulla at 5 min, and sustained until 10 min”. Besides, the Time of death result in [2] (mice) was “around 10 min”. Also, in the series on mice, the “Time to severe respiratory distress after injection” value lay within 5 to 10 min. In addition, the “Peak expiratory flow, peak inspiratory flow, frequency, tidal volume and minute ventilation” value in the series with mice (vs saline) is listed as “significant reduction”. Moreover, the “Time of death after administration” value in series [3] (mice, no antidote) is “around 15 min”. The “Detection in the clinical blood sample” value in series [4] is on record as “clearly detected”. Further, the “Decrease of action potential firing rate” value is given as “about 60%” in the series with VRG neurons (VRG neurons, 1 μmol/L) and “about 70%” with VRG neurons (VRG neurons, 2 μmol/L). Besides, the “Effect on firing rate of picrotoxin-treated VRG neurons” value with VRG neurons (gelsenicine 1 μmol/L in the presence of picrotoxin 50 μmol/L) is “did not affect the firing rate”. Also, the 50% lethal dose (LD50) at 7 days in series [5] came out at 0.14 mg/kg.
In the case of picrotoxin [reference compound], in the series on VRG neurons (picrotoxin 50 μmol/L alone), the “Effect on VRG neuron activity (firing rate vs baseline)” value was “robust increase in activity”.
As to `C=C[C@]12CN(C)[C@@H]3[C@H]4CO[C@H](C[C@H]41)[C@]1(C(=O)Nc4ccccc41)[C@@H]32` [Compound 24, gelsemine], the “Detection in the clinical blood sample” value in series [4] is given as “could also be detected”.
As to `CN1CCc2cc3c(cc2[C@H]1[C@@H]1OC(=O)c2c1ccc1c2OCO1)OCO3` [bicuculline, reference compound], the “Effect on firing of VRG neurons inhibited by gelsenicine” value in the series with VRG neurons (bicuculline 20 μmol/L after gelsenicine 1 μmol/L) is given as “restoring the normal firing rate”.
Regarding `O=C1C=C2C=C[C@@H]3C[C@@]2(O1)[C@H]1CCCCN31` [securinine], in series [6] (intraperitoneal injection), the “Time to peak concentration in plasma” value was no more than 9 min and the “Time to peak concentration in the brain” value was no more than 30 min. Further, in series [3] (antidote 3 mg/kg i.p.), the “Survival rate of poisoned mice” value is 50%.
In the case of `C/C=C1\CN(C)[C@H]2C[C@@]3(C(=O)N(OC)c4ccccc43)[C@H]3C[C@@H]1[C@@H]2CO3` [Compound 17, humantenine], the Detection in plasma result in series [1] is “detected in the plasma”. Also, the “Detection in the clinical blood sample” value in series [4] is “clearly detected”. This molecule came in with an LD50 at 7 days in [5] of 7.11 mg/kg.
Turning to `C=C[C@@]12CN(C)[C@H]3C[C@]14C(=Nc1ccccc14)[C@@H]1C[C@@H]2[C@@H]3CO1` [Compound 32, koumine], the “Detection in the clinical blood sample” value in series [4] was “could also be detected”. The molecule further gave an LD50 at 7 days in series [5] greater than 30 mg/kg.
In the case of `CCOC(=O)c1ncn2c1CN(C)C(=O)c1cc(F)ccc1-2` [flumazenil], the “Time to peak level” value in [6] (oral or intravenous, clinical and animal studies) is no more than 5 min. In addition, the “Survival rate of poisoned mice” value in series [3] (antidote 3 mg/kg i.p.) is 50%.
For the molecule `CCC1(C)CC(=O)NC(=O)C1` [bemegride], the “Time to peak concentration and passage into the brain” value in series [6] is given as no more than 30 min. For the same molecule, in [3] (antidote 6.5 mg/kg i.p.), the “Survival rate of poisoned mice” value is listed as 30%.
